Measured values taken from ChEMBL document CHEMBL5465560, “Selectivity Literature for EUbOPEN Chemogenomic Library” (2024).

What was measured:
[1] = biological target: T1, Protein arginine N-methyltransferase 9 (Homo sapiens) (UniProt Q6P2P2); assay: Selectivity interaction (Methyltransferase screen (Scintillation proximity assays)) EUB0000255b PRMT9
T1 sequence (whole entry): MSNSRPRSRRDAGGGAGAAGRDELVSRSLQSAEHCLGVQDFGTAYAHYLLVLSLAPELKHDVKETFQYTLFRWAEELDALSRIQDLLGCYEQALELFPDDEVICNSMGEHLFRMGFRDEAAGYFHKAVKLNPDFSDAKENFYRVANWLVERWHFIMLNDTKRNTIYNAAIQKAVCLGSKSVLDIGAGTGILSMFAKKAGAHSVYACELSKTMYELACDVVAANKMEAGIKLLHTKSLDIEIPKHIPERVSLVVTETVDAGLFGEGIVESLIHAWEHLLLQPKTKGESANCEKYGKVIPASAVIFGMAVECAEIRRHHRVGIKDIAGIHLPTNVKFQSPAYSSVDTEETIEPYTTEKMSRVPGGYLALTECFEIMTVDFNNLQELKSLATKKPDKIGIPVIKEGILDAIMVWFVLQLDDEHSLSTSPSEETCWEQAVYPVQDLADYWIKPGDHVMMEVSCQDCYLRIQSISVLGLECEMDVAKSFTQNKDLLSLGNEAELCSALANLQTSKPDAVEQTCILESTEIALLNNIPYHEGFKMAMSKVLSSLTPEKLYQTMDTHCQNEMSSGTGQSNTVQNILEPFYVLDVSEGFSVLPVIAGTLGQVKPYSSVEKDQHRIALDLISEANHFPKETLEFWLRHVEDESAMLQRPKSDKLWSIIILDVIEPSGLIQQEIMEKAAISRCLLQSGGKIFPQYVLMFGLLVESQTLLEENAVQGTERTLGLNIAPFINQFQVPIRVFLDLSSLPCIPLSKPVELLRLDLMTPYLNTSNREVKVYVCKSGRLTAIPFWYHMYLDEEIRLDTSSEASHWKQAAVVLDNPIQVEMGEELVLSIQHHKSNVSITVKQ

[2] = biological target: T2, Mitogen-activated protein kinase kinase kinase 5 (Homo sapiens) (UniProt Q99683); conditions: at 10 µM
T2 sequence (whole entry): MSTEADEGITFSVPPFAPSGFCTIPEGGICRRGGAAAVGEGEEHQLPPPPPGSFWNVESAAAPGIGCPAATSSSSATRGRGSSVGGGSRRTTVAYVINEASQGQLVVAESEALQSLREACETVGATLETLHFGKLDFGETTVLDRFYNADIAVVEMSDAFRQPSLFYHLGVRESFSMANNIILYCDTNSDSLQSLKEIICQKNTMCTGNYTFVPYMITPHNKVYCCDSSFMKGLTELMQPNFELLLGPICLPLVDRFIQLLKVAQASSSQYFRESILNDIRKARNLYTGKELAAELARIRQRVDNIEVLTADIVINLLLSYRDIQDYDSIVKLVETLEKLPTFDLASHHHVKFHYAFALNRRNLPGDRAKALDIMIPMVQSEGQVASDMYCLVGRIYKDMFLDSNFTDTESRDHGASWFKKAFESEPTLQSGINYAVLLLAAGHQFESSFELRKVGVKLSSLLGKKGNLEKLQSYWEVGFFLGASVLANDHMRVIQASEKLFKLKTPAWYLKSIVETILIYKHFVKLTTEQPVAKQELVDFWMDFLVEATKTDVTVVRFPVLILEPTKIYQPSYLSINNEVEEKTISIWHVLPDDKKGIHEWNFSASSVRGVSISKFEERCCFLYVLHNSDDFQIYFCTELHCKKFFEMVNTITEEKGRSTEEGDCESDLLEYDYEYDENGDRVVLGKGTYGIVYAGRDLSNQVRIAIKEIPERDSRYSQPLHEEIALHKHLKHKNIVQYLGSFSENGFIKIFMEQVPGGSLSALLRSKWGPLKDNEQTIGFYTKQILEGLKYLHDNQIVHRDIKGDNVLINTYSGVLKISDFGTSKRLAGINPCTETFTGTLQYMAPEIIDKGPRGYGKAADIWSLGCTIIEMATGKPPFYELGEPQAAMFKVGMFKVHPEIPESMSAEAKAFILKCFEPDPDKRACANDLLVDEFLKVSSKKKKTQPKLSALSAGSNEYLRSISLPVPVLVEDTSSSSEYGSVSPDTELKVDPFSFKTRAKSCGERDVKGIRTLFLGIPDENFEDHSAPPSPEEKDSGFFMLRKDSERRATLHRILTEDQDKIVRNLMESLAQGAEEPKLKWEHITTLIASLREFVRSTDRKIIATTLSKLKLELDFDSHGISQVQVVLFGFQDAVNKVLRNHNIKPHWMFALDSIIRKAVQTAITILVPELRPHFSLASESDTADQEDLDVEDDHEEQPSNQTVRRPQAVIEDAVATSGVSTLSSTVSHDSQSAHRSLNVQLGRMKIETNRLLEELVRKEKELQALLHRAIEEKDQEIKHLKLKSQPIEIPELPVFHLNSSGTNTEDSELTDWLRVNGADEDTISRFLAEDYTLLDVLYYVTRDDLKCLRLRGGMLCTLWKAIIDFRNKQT

Compound | % activity ([1]; at 1 µM) [%] | % activity ([1]; at 10 µM) [%] | % of control [2] [%]
COCCN1CCC(c2cc(CN(C)C(=O)c3cccc(Oc4ccccc4)c3)ccn2)CC1 | 90 | > 90 | –
Cc1cc([C@@H](C)Nc2ccccc2C(=O)O)c2nc(N3CCOCC3)cc(=O)n2c1 [AZD-6482] | – | – | 100
